Calls of active or inactive are those of the source.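 The calls were made as follows: active = growth-inhibition EC50 no more than tenfold above the top tested dose; inconclusive = flat fit between 30% and 70% inhibition, or unreliable fit; inactive = EC50 more than tenfold above the top tested dose.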

This assay concerns E. coli NEB5alpha growth, BacTiter-Glo luminescence, 4 h. Nature of the assay: Escherichia coli growth inhibition, dose response, counter-screen for MEX-5/POS-1 RNA-binding inhibitor project, luminescence, NEB5alpha (AID 1959).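 Also: pUC19-transformed ampicillin-resistant cells grown in LB with ampicillin.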
For orientation: EC50 means the concentration at which the effect is half-maximal. As for `O=C1N=C(N2C=CC(=C3C=CNC=C3)C=C2)/C(=C/N=NC(=O)c2ccccc2O)S1`, the EC50 was > 11 µM (inactive).

Turning to `CC(Cc1ccc(O)c(O)c1)C(C)Cc1ccc(O)c(O)c1` (configuration not stated), the EC50 was > 11 µM (inactive).

Take `O=C(O)c1cc(O)c2c(c1)C(=O)c1cccc(O)c1C2=O`: the EC50 was > 11 µM (inactive).

As for `Cc1cccc(NC(=O)c2sc3nc(-c4ccccc4)cn3c2C)n1`, the EC50 is > 11 µM (inactive).

As to `CCCCCCn1c(O)c(C=Nc2ccccc2N2CCOCC2)c(=O)[nH]c1=S`, the EC50 is > 11 µM (inactive).

As to `CC1CN(c2nc3ccccc3nc2C(C#N)C(=O)NC2CCCCC2)CC(C)O1` (configuration not stated), the EC50 is > 11 µM (inactive).

In the case of `Cc1noc(C)c1S(=O)(=O)NC1CCN(Cc2ccccc2)CC1`, the EC50 is > 11 µM (inactive).

Turning to `Cc1cc(C(=O)O)ccc1-c1ccc(/C=C2\NC(=O)N(Cc3ccc(F)cc3)C2=O)o1`, the EC50 is > 11 µM (inactive).

As to `COc1ccccc1C1C(C(C)=O)=C(C)N=c2s/c(=C\c3cc(OC)c(OC)c(OC)c3)c(=O)n21` (configuration not stated), the EC50 was > 11 µM (inactive).

As for `C(=N\NC(=Nc1ccccc1)c1ccccn1)/c1ccccn1`, the EC50 is > 11 µM (inactive).

Regarding `CC1(OC(=O)c2ccc(Cl)nc2)C(=O)C=C2C=C(c3ccsc3)OC=C2C1=O` (configuration not stated), the EC50 was > 11 µM (inactive).

As for `COc1ccc(/C=N/NC(=O)c2ccc(N(C)S(=O)(=O)c3ccccc3)cc2)cc1`, the EC50 is > 11 µM (inactive).

Take `CN(C)C1=NC(=O)/C(=C/c2ccc(-c3ccc(S(N)(=O)=O)cc3)o2)S1`: the EC50 is > 11 µM (inactive).

Consider `O=C(O)CCCCCn1c(SCC(=O)c2ccc(O)c(O)c2)nc2ccsc2c1=O`, for which the EC50 is > 11 µM (inactive).

For `Cc1nnc(N2C(=O)C(O)=C(C(=O)c3ccco3)C2c2cccc3ccccc23)s1` (configuration not stated), the EC50 was > 11 µM (inactive).

With `Cc1ccc(NC(=S)c2ccc3ccccc3n2)c(C)c1`, the EC50 is > 11 µM (inactive).

In the case of `O=C(O)c1cc(O)c2c(c1)[C@H]([C@H]1c3cc(C(=O)O)cc(O)c3C(=O)c3c(O[C@@H]4O[C@H](CO)[C@@H](O)[C@H](O)[C@H]4O)cccc31)c1cccc(OC3O[C@H](CO)[C@@H](O)[C@H](O)[C@H]3O)c1C2=O` (some centres not stated), the EC50 was > 11 µM (inactive).

As for `NC(=O)c1ccsc1N`, the EC50 is > 11 µM (inactive).

For the compound `C=CCNC(=S)N1CCN(c2cccc(C(F)(F)F)c2)CC1`, the EC50 is > 11 µM (inactive).

With `CCCSc1nnc(N2C(=O)C(O)=C(C(=O)c3ccco3)C2c2ccccc2F)s1` (configuration not stated), the EC50 was > 11 µM (inactive).

On to `O=C(O)c1cccc(-n2cccc2C=C2C(=O)c3ccccc3C2=O)c1`, for which the EC50 was > 11 µM (inactive).

On to `Oc1[nH]c2ccccc2c1N=Nc1ccc(F)cc1`, for which the EC50 was > 11 µM (inactive).

As to `Cc1cc(/C=C2\C(=O)NC(=O)N(c3ccccc3)C2=O)c(C)n1-c1ccc(C(=O)O)c(Cl)c1`, the EC50 was > 11 µM (inactive).

For the compound `CCN1C(=O)/C(=C2/C=Cc3ccccc3N2C)OC1=S`, the EC50 is > 11 µM (inactive).

For the compound `CCOc1cc(/C=C2\SC(=Nc3ccc(CC)cc3)NC2=O)ccc1OCC(=O)O`, the EC50 is > 11 µM (inactive).

Regarding `O=C(N/N=C/c1c(O)n(CCc2ccc(F)cc2)c(=O)[nH]c1=O)c1ccccc1`, the EC50 is > 11 µM (inactive).

As for `C(#Cc1ccc2c(c1)COc1c3ccccc3nn1-2)c1ccccc1`, the EC50 was > 11 µM (inactive).

With `Oc1[nH]c2ccccc2c1N=Nc1cccc(Cl)c1`, the EC50 is > 11 µM (inactive).

For the compound `COc1cccc(/C=C2\SC(=S)N(CCCC(=O)NC3=NCCS3)C2=O)c1`, the EC50 was > 11 µM (inactive).

As for `CC(C)Cc1nn2c(N)c(/C=C3\C=Nc4ccccc43)c(=O)nc2s1`, the EC50 is > 11 µM (inactive).

In the case of `COc1ccc(C2C(C(=O)c3cccs3)=C(O)C(=O)N2c2nnc(C)s2)cc1OC` (configuration not stated), the EC50 is > 11 µM (inactive).

On to `Cn1c(O)c(C=NCCCCCCCCCCC(=O)O)c(=O)n(C)c1=O`, for which the EC50 was > 11 µM (inactive).

Take `CS(=O)(=O)Oc1ccc2c(c1)O/C(=C\C=C\c1ccccc1)C2=O`: the EC50 was > 11 µM (inactive).

For `COc1ccc(N2C(=O)/C(=C/c3ccc(C)o3)C(=O)NC2=S)cc1`, the EC50 is > 11 µM (inactive).

Take `CC1(CCl)N([O-])C2=C(CCCC2)[N+]1=O` (configuration not stated): the EC50 was > 11 µM (inactive).

For `CCOC(=O)c1ccc(-c2ccc(C=O)o2)cc1`, the EC50 is > 11 µM (inactive).

With `CCOC(=O)[C@]1(C#N)[C@@H]2C=CC(C(C)=O)=CN2[C@@H](C(N)=O)[C@@H]1c1ccsc1`, the EC50 was > 11 µM (inactive).

With `N#Cc1c(N)n(-c2cccc(C(=O)O)c2)c2nc3ccccc3nc12`, the EC50 is > 11 µM (inactive).

In the case of `CC(=O)c1ccc2c(c1)C1C=CCC1C(c1cc3c(cc1Br)OCO3)N2` (configuration not stated), the EC50 was > 11 µM (inactive).

As to `COc1ccc(C2=CC3=C(Br)C(=O)C(C)(OC(=O)C4CCCC4)C(=O)C3=CO2)cc1` (configuration not stated), the EC50 was > 11 µM (inactive).

Regarding `O=C(CN1C(=O)/C(=C\C=C\c2ccccc2)SC1=S)Nc1ccc(F)cc1`, the EC50 is > 11 µM (inactive).

Take `COc1cc(OC)c2c(O)c3c(c(-c4c5c(c(O)c6c(OC)cc(OC)cc46)CO[C@@H](C)[C@H]5O)c2c1)[C@H](O)[C@H](C)OC3`: the EC50 is > 11 µM (inactive).

As for `COc1ccc(C2c3ccc(O)cc3Oc3ncn(Cc4ccco4)c(=N)c32)cc1OC` (configuration not stated), the EC50 was > 11 µM (inactive).

Regarding `CC1(C)CC(=O)C2=C(C1)OC(N)=C(C#N)C21C(=O)N2CCCc3cccc1c32` (configuration not stated), the EC50 is > 11 µM (inactive).

As to `CC(=O)Nc1ccc(S(=O)(=O)NNC(=O)C(=O)NNc2ccccn2)cc1`, the EC50 was > 11 µM (inactive).

On to `Cc1ccc2nc(-c3ccc(O)c(O)c3)cn2c1`, for which the EC50 was > 11 µM (inactive).

Consider `C=CCOc1ccc(C2C(C(=O)c3ccco3)=C(O)C(=O)N2c2nnc(C)s2)cc1` (configuration not stated), for which the EC50 is > 11 µM (inactive).

In the case of `CCOCCCn1c(=NC(=O)c2cccs2)c(C#N)cc2c(=O)n3cccc(C)c3nc21`, the EC50 was > 11 µM (inactive).

Regarding `CC1(C)CC(=O)C2=C(C1)OC(/N=C/N1CCCC1)=C(C#N)C2c1ccccc1` (configuration not stated), the EC50 was > 11 µM (inactive).

Turning to `COc1cc(/C=N/Nc2nc(=O)[nH]nc2C)cc([N+](=O)[O-])c1O`, the EC50 is > 11 µM (inactive).

Consider `N#CC(C#N)=Cc1ccc(-c2ccccc2)o1`, for which the EC50 was > 11 µM (inactive).

On to `Cc1ccc(/C=C2\C(=O)NC(=S)N(c3cccc(F)c3)C2=O)o1`, for which the EC50 was > 11 µM (inactive).

Consider `COc1c(/C=C2/C(=O)NC(=O)N(C)C2=O)c(CCN(C)C(=O)c2ccccc2)cc2c1OCO2`, for which the EC50 is > 11 µM (inactive).

With `CN=C1S/C(=C\c2ccc(N3CCCC3)c(F)c2)C(=O)N1C`, the EC50 is > 11 µM (inactive).

Regarding `COc1ccc2c(-c3ccccc3)cc(SCC(N)=O)nc2c1`, the EC50 was > 11 µM (inactive).

With `Cc1ccc(-n2[nH]c(C)c(/C=N/NC(=O)c3ccc(O)cc3O)c2=O)cc1`, the EC50 is > 11 µM (inactive).

`CN(C)Cc1cc(O)c(CN(C)C)cc1O`: the EC50 was > 11 µM (inactive).

As for `CC1(C)CC(=O)C2=C(C1)Nc1ccccc1S2`, the EC50 is > 11 µM (inactive).

For the compound `COc1ccc(NC(=O)NS(=O)(=O)c2ccc(C)cc2)cn1`, the EC50 was > 11 µM (inactive).

`CC(=NC1CCCC1)c1c(C)[nH]n(-c2nc3ccccc3s2)c1=O`: the EC50 was > 11 µM (inactive).

For `COc1ccc(CCNC(=O)c2cc3c(=O)n4cccc(C)c4nc3n(CCCN3CCOCC3)c2=N)cc1`, the EC50 is > 11 µM (inactive).

Regarding `CC(C)OC(=O)c1nn2c(C(F)(F)F)cc(-c3ccc(Br)o3)nc2c1Br`, the EC50 is > 11 µM (inactive).

In the case of `Cc1cc(/C=C2\C(=O)NC(=O)N(c3ccc(Cl)cc3)C2=O)c(C)n1-c1cccc(C(=O)O)c1`, the EC50 is > 11 µM (inactive).

`C=CCN1C(=O)NC(=O)/C(=C/c2ccc(OCC(=O)Nc3ccc(C)cc3)cc2)C1=O`: the EC50 is > 11 µM (inactive).

For `Oc1ccc(C[C@H]2NCCc3cc(O)c(O)cc32)cc1O`, the EC50 was > 11 µM (inactive).

With `O=c1cc(-c2ccc(O)c(O)c2)oc2cc(O)cc(O)c12`, the EC50 is > 11 µM (inactive).

For `O=C(O)c1cccc(-n2cccc2/C=N/O)c1`, the EC50 is > 11 µM (inactive).

`Cc1cc(=O)[nH]c(N/N=C/c2ccc(O)c(O)c2)n1`: the EC50 was > 11 µM (inactive).

Regarding `CC(=O)N1CCc2c(sc(NC(=O)C3CCCN3S(=O)(=O)c3cccs3)c2C(N)=O)C1` (configuration not stated), the EC50 is > 11 µM (inactive).

As to `COc1cc2c(cc1OC)-c1c(OC)c(OC)c(OC)c3ccnc(c13)C2=O`, the EC50 was > 11 µM (inactive).

On to `COc1cc(/C=C2/C(=O)ON=C2C)ccc1OCc1ccccc1F`, for which the EC50 is > 11 µM (inactive).

With `O=C(NNC(=O)c1ccccc1O)c1cccc(Br)c1`, the EC50 is > 11 µM (inactive).

In the case of `CCN1C(=O)/C(=C\c2cccs2)C(C(=O)OC)=C1C`, the EC50 is > 11 µM (inactive).

Turning to `CN1CC=C2C(C#N)=C(N)C(C#N)(C#N)[C@H](c3cccc(Cl)c3)C2C1` (some centres not stated), the EC50 is > 11 µM (inactive).

Take `COC(=O)C1=C(C)N(c2ccccc2)/C(=C/c2ccco2)C1=O`: the EC50 is > 11 µM (inactive).

In the case of `Cc1cccc2sc(NNC(=O)c3cc(=O)c4ccccc4o3)nc12`, the EC50 is > 11 µM (inactive).

Regarding `Cc1ccc(N/N=C/c2c(C)c(C#N)c(=O)n(C)c2O)cc1C`, the EC50 is > 11 µM (inactive).

With `CC(C)(C)OC(=O)NC(Cc1ccccc1)C(=O)N1CCC(C(=O)NCC(=O)Nc2ccc(F)cc2)CC1` (configuration not stated), the EC50 was > 11 µM (inactive).

Turning to `[O-]/C(=C(\C(=S)NCc1ccco1)[n+]1ccccc1)c1ccccc1Br`, the EC50 was > 11 µM (inactive).

Turning to `O=C1CS/C(=C\[N+](=O)[O-])N1c1ccccc1`, the EC50 was > 11 µM (inactive).

`Cc1ccc(S(=O)(=O)NNc2nc3ccccc3nc2C(F)(F)F)cc1`: the EC50 is > 11 µM (inactive).

As for `CCOC(=O)N1CCN(C(=O)c2ccc3c(c2)NC(=O)/C(=C\c2ccc(OC)c(OC)c2)S3)CC1`, the EC50 is > 11 µM (inactive).

For the origin of these results see PubChem BioAssay AID1959 (Broad Institute, 2009).
